Columns and labels:
[1] = system: antibody MDMA-2.1.1; test: Cross-reactivity assay (competitive ELISA) of antibody MDMA-2.1.1; format: binding, mice; conditions: ED50 of standard divided by ED50 of drug, times 100
Excerpt: (§1) By determining the drug concentration that results in a 50% reduction in binding (ED 50) of a standard, methamphetamine, dividing by the ED50 of each other drug, and then multiplying the result by 100, the percent cross-reactivities shown in Table 2 can be calculated.
(§2) Supernatants are subjected to serial dilutions and re-tested in the ELISA screen above. The dilution providing for about a 50% reduction from the maximum OD is chosen for proceeding to cross-reactivity testing. This consists of repeating the preceding assay with the antibody at the chosen dilution and in the presence of varying concentrations of drugs. The charts shown in FIG. 5 and FIG. 6 present the results of such determinations.

[2] = system: antibody NEAMP-1.3; test: Cross-reactivity assay (competitive ELISA) of antibody NEAMP-1.3; format: binding, mice; conditions: ED50 of standard divided by ED50 of drug, times 100
Protocol: as §1
Microplates were coated with 100 μL Methamphetamine-BSA conjugate 28 and separate plates with 100 μL N-ethylamphetamine-BSA 26 (Q=BSA, 26b) at 1 μg/mL in 0.1 M carbonate buffer, pH 9.5 for 1 hour at 37° C. (humidified).
A criterion for selection was binding to the Methamphetamine-BSA conjugate 28. Table 5 presents binding data for a portion of the screening of the Meth-BSA 28 and NEAMP-BSA 26 (Q=BSA, 26b) coated plates.
as §2, with “drugs.” for “drugs. The charts shown in FIG. 5 and FIG. 6 present the results of such determinations.”

| Structure (SMILES) | % Cross-reactivity [1] [%] | Percent Cross-Reactivity [2] [%] |
| --- | --- | --- |
| CN[C@@H](C)Cc1ccc2c(c1)OCO2 [d-MDMA] | 100 |  |
| CNC(C)Cc1ccc2c(c1)OCO2 (stereo not drawn) [MDMA, 3,4-methylenedioxy-N-methylamphetamine] |  | 114 |
| C[C@H](N)Cc1ccccc1 [d-AMP, d-amphetamine] |  | 32.5 |
| CCNC(C)Cc1ccc2c(c1)OCO2 (stereo not drawn) [MDEA, 3,4-methylenedioxy-N-ethylamphetamine] |  | 507 |
| C[C@H]1[C@H](c2ccccc2)OCCN1C [Phendimetrazine] |  | 0.6 |
| CN[C@@H](C)[C@@H](O)c1ccccc1 [Pseudoephedrine, pseudoephedrine] |  | 2.0 |
| CN[C@@H](C)[C@H](O)c1ccccc1 [I-ephedrine] |  | 6.7 |
| CCC(Cc1ccc2c(c1)OCO2)NC (stereo not drawn) [MBDB, 3,4-methylenedioxyphenyl-N-methylbutanamine] |  | 20 |
| CN[C@@H](C)Cc1ccccc1 [d-MAMP, d-methamphetamine] |  | 100 |

From patent publication US7169907B2, “Derivatives, immunogens, and antibodies for detecting ecstasy-class drugs” (Roche Diagnostics Operations, Inc., priority 2002, dated 2007)
